Assay results published in patent US6362212B1, “Oxime derivative and bactericide containing the same as active ingredient” (Shionogi & Company, Ltd., priority 1994, dated 2002).

Tests used:
Type in all cases: in vivo
[1] = system: Sphaerotheca fuliginea; experiment: Controlling effect on Sphaerotheca fuliginea by foliage application (pot experiment); settings: foliage spray on cucumber (cv. TSUKUBASHIROIBO) first leaves, infected area after 10 days in greenhouse at 20° C.
Description: The following Test Examples illustrate the effects of the fungicide of the present invention. (I. Controlling effects on various plant diseases by foliage application (pot experiment)) A test compound was dissolved in a small amount of N,N-dimethylformamide, and the solution was diluted to a given concentration with distilled water containing a spreader. Thus, a liquid sample to be tested was prepared. The liquid sample was sprayed to test plants, and 24 hours thereafter, pathogens were inoculated by the method described below. […] Seeds of cucumber ([…]) were sown in plastic cups (each 9 cm in diameter), followed by cultivation for 2 to 3 weeks. The liquid test sample in the form of a solution or suspension was sprayed on the surface of their first leaves. The pathogen was inoculated to the leaves by spraying a conidia suspension of Sphaerotheca fuliginea which had been cultured on the cucumber leaves. After the inoculation, the plants were kept in a greenhouse at 20° C. for 10 days. Then, the infected area on the leaf was observed, and the percent control was calculated.

[2] = system: Pyricularia oryzae; settings: foliage spray on rice seedlings (cv. […]), number of lesions six days after the inoculation
[3] = system: Erysiphe graminis f. sp. tritici; experiment: Controlling effect on Erysiphe graminis f. sp. tritici by foliage application (pot experiment); settings: foliage spray on wheat (cv. NORIN No. 61) seedlings, infected area after 10 days in greenhouse at 20° C.
Description: The following Test Examples illustrate the effects of the fungicide of the present invention. (I. Controlling effects on various plant diseases by foliage application (pot experiment)) A test compound was dissolved in a small amount of N,N-dimethylformamide, and the solution was diluted to a given concentration with distilled water containing a spreader. Thus, a liquid sample to be tested was prepared. The liquid sample was sprayed to test plants, and 24 hours thereafter, pathogens were inoculated by the method described below. […] The seeds of wheat (cv.: NORIN No. 61) were sown in plastic cups (each 9 cm in diameter), followed by cultivation for 2 to 3 weeks. The test compound in the form of a solution or suspension was sprayed to the seedlings, and conidia of Erysiphe graminis f. sp. tritici cultured on wheat leaves were dropped on the test plants to inoculate the plants with the pathogen. After the inoculation, the plants were kept in a greenhouse at 20° C. for 10 days. The infected area on the leaf was observed, and the percent control was calculated.

SMILES | Controlling effect on Sphaerotheca fuliginea by foliage application at 500 ppm (percent control) [1] [percent control] | Controlling effect on PYricularia orYzae by foliage application at 500 ppm (percent control) [2] [percent control] | Controlling effect on ErYsiphe graminis f. sp. tritici by foliage application at 500 ppm (percent control) [3] [percent control]
CON=C(c1ccon1)c1ccccc1COc1cccc(C(F)(F)F)c1 (mixture of isomers) [compound 322] | 100 | 70 | 70
CON=C(C1=NCCN1)c1ccccc1COc1cccc(C)c1 (mixture of isomers) [compound 1461] |  | 70 | 
CCON=C(c1ccon1)c1ccccc1COc1cc(C)ccc1C (mixture of isomers) [compound 1674] | 70 | 70 | 70
CON=C(c1ccccc1COc1ccc(Cl)cc1)c1nccn1C (single isomer, unassigned) [107A] | 100 | 90 | 70
CON=C(c1ccccc1COc1ccc(C)cc1)c1nccn1C (single isomer, unassigned) [114A] | 100 | 90 | 90
CON=C(c1ccccc1COc1ccccc1OC)c1nccn1C (single isomer, unassigned) [118B] |  | 70 | 
CON=C(c1ccccc1COc1ccc(Cl)cc1C)c1nccn1C (single isomer, unassigned) [141B] | 100 | 70 | 
CON=C(c1ccccc1COc1cc(C)ccc1C)c1ccnn1C (single isomer, unassigned) [1554A] |  | 70 | 70
CON=C(c1ccccc1COc1cc(C)ccc1C)n1ccnc1 [Compound No. 39] | 100 | 70 | 
CON=C(c1ncon1)c1ccccc1COc1ccccc1C [Compound No. 812] | 100 | 70 | 100
CON=C(c1noc(C)n1)c1ccccc1COc1ccccc1C [Compound No. 912] | 100 | 70 | 90
O=C1OCc2c(Cl)c(Cl)c(Cl)c(Cl)c21 [Fthalide, reference compound] |  | 97 | 
CON=C(c1ccccc1COc1ccccc1)n1cnc(C)c1 [compound 221] | 97 | 70 | 70
CON=C(c1ccccc1COc1ccccc1Cl)n1cnc(C)c1 [compound 225] |  | 70 | 
CON=C(c1ccccc1COc1cccc(Cl)c1)n1cnc(C)c1 [compound 226] | 70 | 70 | 70
CON=C(c1ccccc1COc1ccccc1)n1ccnc1C [compound 241] |  | 70 | 
CON=C(c1ccccc1COc1ccccc1)n1cncn1 [compound 261] | 97 | 70 | 97

SMILES | Controlling effect on Sphaerotheca fuliginea by foliage application at 500 ppm (percent control) [1] [percent control] | Controlling effect on PYricularia orYzae by foliage application at 500 ppm (percent control) [2] [percent control] | Controlling effect on ErYsiphe graminis f. sp. tritici by foliage application at 500 ppm (percent control) [3] [percent control]
CON=C(c1ccccc1COc1cccc(Cl)c1)n1cncn1 [compound 266] | 97 | 90 | 97
CON=C(c1ccccc1COc1ccccc1)n1cccn1 [compound 281] |  | 70 | 90
CON=C(c1ccccc1COc1ccc(Cl)cc1)n1cccn1 [compound 287] |  | 90 | 
CCON=C(c1ccccc1COc1ccccc1)n1cccn1 [compound 295] |  | 90 | 90
CON=C(c1ccccc1Oc1ccccc1)n1cccn1 [compound 300] | 70 | 70 | 
CON=C(C1=NCCN1C)c1ccccc1COc1ccc(C(F)(F)F)cc1 [compound 1123] | 90 |  | 90
CON=C(C1=NCCO1)c1ccccc1COc1ccccc1C [compound 1310] | 90 | 70 | 90
CON=C(C1=NCCO1)c1ccccc1COc1cccc(C)c1 [compound 1311] | 70 |  | 70
CON=C(c1ncc[nH]1)c1ccccc1COc1cc(C)ccc1C [compound 1428] | 100 |  | 70
CON=C(C1=NCCN1)c1ccccc1COc1ccccc1C [compound 1460] |  | 90 | 90
CON=C(C1=NCCS1)c1ccccc1COc1cc(C)ccc1C [compound 1514] | 97 |  | 70
CON=C(c1ncno1)c1ccccc1COc1ccccc1 [compound 1581] | 70 | 70 | 
CON=C(c1cnco1)c1ccccc1COc1cc(C)ccc1C [compound 1734] | 90 |  | 70
CON=C(c1cnco1)c1ccccc1Oc1ccccc1 [compound 1735] | 100 |  | 97
CON=C(c1nnn(C)n1)c1ccccc1COc1ccccc1C [compound 2012] | 100 |  | 70
CON=C(c1ccccc1CON=C(C)c1ccccc1)n1ccnc1 [compound 3041] | 97 | 90 | 
